In US10280171B2, “Heterocyclic inhibitors of PTPN11” (priority 2016, dated 2019):
Where a name gives a salt, the structure may show the parent alone. Read-outs that look alike come from different tables or passages of the source.

Key:
[1] = test system: Phospho-ERK levels in KYSE-520 cells; assay: pERK AlphaScreen Protocol; format: cell-based; conditions: read-out: PERK Avg IC50
Description: KYSE-520 cells (10 k cells/well) were grown in 384-well plate in 20 uL of medium (RPMI-1640, without phenol red, containing 10% FBS) at 37° C. with 5% CO2 overnight. DMSO (control) or increasing concentrations of compounds were diluted in medium, added to the 384-well plate (5 uL/well, final DMSO concentration of 1%), and cells were then incubated with compounds for 2 hr. Phospho-ERK levels were measured using phospho-ERK1/2 AlphaScreen SureFire (PerkinElmer, TGRESB10K) following manufacturer's recommendations. Dose-response curves were analyzed using IC50 regression curve fitting (GeneData Screener). Curves were normalized to a high control without inhibitor (DMSO only), and low control (1 μM selumetinib).

[2] = molecular target: PTPN11-E76K mutant enzyme (Homo sapiens (Human), UniProt Q06124, E76K); assay: PTPN11 Enzymatic Assay (DiFMUP phosphatase activity); format: biochemical; conditions: DiFMUP 50 μM, 30 min preincubation
Sequence of PTPN11-E76K mutant enzyme (Q06124 whole entry E76K): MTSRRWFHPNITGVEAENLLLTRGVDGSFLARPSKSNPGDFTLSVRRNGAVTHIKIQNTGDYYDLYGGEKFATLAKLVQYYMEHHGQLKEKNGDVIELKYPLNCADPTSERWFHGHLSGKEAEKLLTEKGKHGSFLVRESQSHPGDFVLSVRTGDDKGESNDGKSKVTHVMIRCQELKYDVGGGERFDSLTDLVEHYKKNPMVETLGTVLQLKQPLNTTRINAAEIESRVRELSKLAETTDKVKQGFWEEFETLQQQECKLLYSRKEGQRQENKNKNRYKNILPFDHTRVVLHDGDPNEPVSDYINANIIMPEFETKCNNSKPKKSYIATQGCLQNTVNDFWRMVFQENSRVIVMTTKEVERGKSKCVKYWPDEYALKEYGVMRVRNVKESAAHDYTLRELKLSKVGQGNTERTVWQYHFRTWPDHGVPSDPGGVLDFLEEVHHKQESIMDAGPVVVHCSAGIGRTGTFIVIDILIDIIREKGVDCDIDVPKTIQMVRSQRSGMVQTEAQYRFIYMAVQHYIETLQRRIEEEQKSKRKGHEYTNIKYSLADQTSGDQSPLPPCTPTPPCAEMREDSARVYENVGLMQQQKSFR
Description: Reaction was initiated by addition of DiFMUP (50 μM) at room temperature in 384-well black plate with a final reaction volume of 20 uL in assay buffer. […] Dose-response curves were analyzed using IC50 regression curve fitting (GeneData Screener). Curves were normalized to a high controls without inhibitor, and low controls without enzyme.

[3] = Homo sapiens, KYSE-520, 2 h, KYSE-520 cells, 2 hr compound incubation, phospho-ERK1/2 AlphaScreen SureFire
[4] = full length PTPN11-E76K mutant enzyme 250 pM, read-out: PTPN11-E76K Avg IC50
[5] = KYSE-520 cells, 2 hr compound incubation, phospho-ERK1/2 AlphaScreen SureFire
[6] = PTPN11-E76K Avg IC50, full length PTPN11-E76K mutant enzyme 250 pM

Nc1cccc(-c2n[nH]c3nc(N4CCC5(CCC[C@H]5N)CC4)cnc23)c1Cl [Example 131, (1R)-8-[3-(3-amino-2-chlorophenyl)-1H-pyrazolo[3,4-b]-pyrazin-6-yl]-8-aza-spiro[4.5]decan-1-amine]
IC50 [1, 3]: 0.035 µM | IC50 [2, 4]: 0.084 µM

CC1(CN)CCN(c2cnc3c(-c4cccc(Cl)c4)n[nH]c3n2)CC1 [Example 9, (1-(3-(3-chloro-phenyl)-1H-pyrazolo[3,4-b]-pyrazin-6-yl)-4-methylpiperidin-4-yl)methanamine]
IC50 [1, 3]: 0.482 µM | IC50 [2, 4]: 0.367 µM

NC1C(F)CCC12CCN(c1cnc3c(-c4cccc(Cl)c4Cl)n[nH]c3n1)CC2 (single isomer, unassigned; isomer a) [Example 64A, 8-(3-(2,3-Dichlorophenyl)-1H-pyrazolo[3,4-b]pyrazin-6-yl)-2-fluoro-8-azaspiro[4.5]decan-1-amine, isomer A]
IC50 [1, 5]: 0.034 µM | IC50 [2, 6]: 0.098 µM

Nc1nccc(-c2n[nH]c3nc(N4CCC5(CCC[C@H]5N)CC4)cnc23)c1Cl [Example 130, (1R)-8-[3-(2-amino-3-chloropyridin-4-yl)-1H-pyrazolo[3,4-b]pyrazin-6-yl]-8-azaspiro[4.5]decan-1-amine]
IC50 [1, 3]: 0.065 µM | IC50 [2, 4]: 0.083 µM

N[C@@H]1CCCC12CCN(c1cnc3c(-c4cc(Cl)cc(Cl)c4)n[nH]c3n1)CC2 [Example 45, (R)-8-(3-(3,5-dichloro-phenyl)-1H-pyrazolo[3,4-b]-pyrazin-6-yl)-8-aza-spiro[4.5]decan-1-amine]
IC50 [1, 3]: 1.42 µM | IC50 [2, 4]: 0.355 µM

COc1cc(Cl)cc(-c2n[nH]c3nc(N4CCC(C)(CN)CC4)cnc23)c1 [Example 35, (1-(3-(3-chloro-5-methoxyphenyl)-1H-pyrazolo[3,4-b]-pyrazin-6-yl)-4-methylpiperidin-4-yl) methanamine]
IC50 [1, 3]: 0.704 µM | IC50 [2, 4]: 0.304 µM

NCC1(O)CCN(c2cnc3c(-c4ccnc(O)c4Cl)n[nH]c3n2)CC1 [Example 120, 4-(6-(4-(Aminomethyl)-4-hydroxypiperidin-1-yl)-1H-pyrazolo[3,4-b]pyrazin-3-yl)-3-chloropyridin-2-ol]
IC50 [1, 3]: 9.7 µM | IC50 [2, 4]: 5.37 µM

N[C@@H]1COCC12CCN(c1cnc3c(-c4c(F)cccc4Cl)n[nH]c3n1)CC2 [Example 40, (4S)-8-(3-(2-Chloro-6-fluorophenyl)-1H-pyrazolo[3,4-b]-pyrazin-6-yl)-2-oxa-8-azaspiro[4.5]-decan-4-amine]
IC50 [1, 3]: 0.186 µM | IC50 [2, 4]: 0.203 µM

Cc1c(Cl)cccc1-c1n[nH]c2nc(N3CCC(C)(CN)CC3)cnc12 [Example 28, (1-(3-(3-chloro-2-methylphenyl)-1H-pyrazolo[3,4-b]-pyrazin-6-yl)-4-methylpiperidin-4-yl) methanamine]
IC50 [1, 3]: 0.19 µM | IC50 [2, 4]: 0.142 µM

CC1(N)CCN(c2cnc3c(-c4ccc(Cl)cc4)n[nH]c3n2)CC1 [Example 15, 1-(3-(4-Chlorophenyl)-1H-pyrazolo[3,4-b]pyrazin-6-yl)-4-methylpiperidin-4-amine]
IC50 [1, 3]: 0.103 µM | IC50 [2, 4]: 0.14 µM

NCC1(O)CCN(c2cnc3c(-c4cccc(Cl)c4Cl)n[nH]c3n2)CC1 [Example 8, 4-(aminomethyl)-1-(3-(2,3-dichloro-phenyl)-1H-pyrazolo[3,4-b]-pyrazin-6-yl)-piperidin-4-ol]
IC50 [1, 3]: 0.086 µM | IC50 [2, 4]: 0.204 µM

CC1(CN)CCN(c2cnc3c(-c4ccnc(O)c4Cl)n[nH]c3n2)CC1 [Example 118, 4-(6-(4-(Aminomethyl)-4-methylpiperidin-1-yl)-1H-pyrazolo[3,4-b]pyrazin-3-yl)-3-chloropyridin-2-ol]
IC50 [1, 3]: 8.28 µM | IC50 [2, 4]: 1.13 µM

CC1(CN)CCN(c2cnc3c(-c4ccc(Cl)c(Cl)c4)n[nH]c3n2)CC1 [Example 13, (1-(3-(3,4-dichloro-phenyl)-1H-pyrazolo[3,4-b]-pyrazin-6-yl)-4-methylpiperidin-4-yl) methanamine]
IC50 [1, 3]: 0.562 µM | IC50 [2, 4]: 0.158 µM

CC(N)C1(C)CCN(c2cnc3c(-c4ccnc(N)c4Cl)n[nH]c3n2)CC1 (single isomer, unassigned) [Example 113a, 4-(6-(4-(1-Aminoethyl)-4-methylpiperidin-1-yl)-1H-pyrazolo[3,4-b]pyrazin-3-yl)-3-chloropyridin-2-amine]
IC50 [1, 3]: 0.1 µM | IC50 [2, 4]: 0.18 µM

CC1(N)CCN(c2cnc3c(-c4ccc(Cl)c(Cl)c4)n[nH]c3n2)CC1 [Example 18, 1-(3-(3,4-dichloro-phenyl)-1H-pyrazolo[3,4-b]-pyrazin-6-yl)-4-methylpiperidin-4-amine]
IC50 [1, 3]: 0.667 µM | IC50 [2, 4]: 0.141 µM

CC1(CN)CCN(c2cnc3c(-c4ccncc4Cl)n[nH]c3n2)CC1 [Example 31, (1-(3-(3-chloro-pyridin-4-yl)-1H-pyrazolo[3,4-b]-pyrazin-6-yl)-4-methylpiperidin-4-yl) methanamine]
IC50 [1, 3]: 0.71 µM | IC50 [2, 4]: 0.929 µM

CC1(CN)CCN(c2cnc3c(-c4cc(Cl)cc(Cl)c4)n[nH]c3n2)CC1 [Example 11, (1-(3-(3,5-dichloro-phenyl)-1H-pyrazolo[3,4-b]-pyrazin-6-yl)-4-methylpiperidin-4-yl) methanamine]
IC50 [1, 3]: 1.17 µM | IC50 [2, 4]: 0.632 µM

N[C@@H]1CCCC12CCN(c1cnc3c(-c4ccnc(O)c4Cl)n[nH]c3n1)CC2 [Example 108, (R)-4-(6-(1-Amino-8-azaspiro[4.5]decan-8-yl)-1H-pyrazolo[3,4-b]pyrazin-3-yl)-3-chloropyridin-2-ol trifluoroacetate]
IC50 ([1]; Homo sapiens, KYSE-520, 2 h): 6.8 µM | IC50 [2, 4]: 0.726 µM

NC1(CO)CCN(c2cnc3c(-c4c(F)cccc4Cl)n[nH]c3n2)CC1 [Example 121, (4-Amino-1-(3-(2-chloro-6-fluorophenyl)-1H-pyrazolo[3,4-b]pyrazin-6-yl)-piperidin-4-yl)methanol]
IC50 [1, 3]: 1.65 µM | IC50 [2, 4]: 1.08 µM

NC1(CO)CCN(c2cnc3c(-c4ccnc(O)c4Cl)n[nH]c3n2)CC1 [Example 110, 4-(6-(4-Amino-4-(hydroxymethyl)piperidin-1-yl)-1H-pyrazolo[3,4-b]pyrazin-3-yl)-3-chloropyridin-2-ol]
IC50 [1, 3]: 7.85 µM | IC50 [2, 4]: 3.68 µM

Cc1ncccc1-c1n[nH]c2nc(N3CCC4(CCC[C@H]4N)CC3)cnc12 [Example 55, (R)-8-(3-(2-methyl-pyridin-3-yl)-1H-pyrazolo[3,4-b]-pyrazin-6-yl)-8-azaspiro[4.5]decan-I -amine]
IC50 [1, 3]: 0.712 µM | IC50 [2, 4]: 1.14 µM

N[C@@H]1COCC12CCN(c1cnc3c(-c4cccnc4Cl)n[nH]c3n1)CC2 [Example 41, (S)-8-(3-(2-chloro-pyridin-3-yl)-1H-pyrazolo[3,4-b]-pyrazin-6-yl)-2-oxa-8-azaspiro[4.5]-decan-4-amine trifluoroacetate]
IC50 ([1]; Homo sapiens, KYSE-520, 2 h): 0.394 µM | IC50 [2, 4]: 0.966 µM

CC1(CN)CCN(c2cnc3c(-c4cc(N)ncc4Cl)n[nH]c3n2)CC1 [Example 133, 4-{6-[4-(amino-methyl)-4-methyl-piperidin-1-yl]-1H-pyrazolo[3,4-b]-pyrazin-3-yl}-5-chloropyridin-2-amine]
IC50 [1, 3]: 0.533 µM | IC50 [2, 4]: 0.84 µM

N[C@@H]1COCC12CCN(c1cnc3c(-c4ccnc(O)c4Cl)n[nH]c3n1)CC2 [Example 109, (S)-4-(6-(4-Amino-2-oxa-8-azaspiro[4.5]decan-8-yl)-1H-pyrazolo[3,4-b]pyrazin-3-yl)-3-chloropyridin-2-ol]
IC50 [1, 3]: 10 µM | IC50 [2, 4]: 1.09 µM

NC1C(F)(F)CCC12CCN(c1cnc3c(-c4cccc(Cl)c4Cl)n[nH]c3n1)CC2 (single isomer, unassigned) [Example 65B, 8-(3-(2,3-Dichlorophenyl)-1H-pyrazolo[3,4-b]pyrazin-6-yl)-2,2-difluoro-8-azaspiro[4.5]decan-1-amine]
IC50 [1, 5]: 0.165 µM | IC50 [2, 6]: 0.471 µM

NC1(CF)CCN(c2cnc3c(-c4cccc(Cl)c4Cl)n[nH]c3n2)CC1 [Example 58, 1-(3-(2,3-dichlo-rophenyl)-1H-pyrazolo[3,4-b]-pyrazin-6-yl)-4-(fluoromethyl)-piperidin-4-amine]
IC50 [1, 3]: 0.109 µM | IC50 [2, 4]: 0.338 µM

CNc1nccc(-c2n[nH]c3nc(N4CCC5(CCC[C@H]5N)CC4)cnc23)c1Cl [Example 111, (R)-8-(3-(3-Chloro-2-(methylamino)pyridin-4-yl)-1H-pyrazolo[3,4-b]pyrazin-6-yl)-8-azaspiro[4.5]decan-1-amine]
IC50 [1, 3]: 0.02 µM | IC50 [2, 4]: 0.043 µM

CC1(N)CCN(c2cnc3c(-c4cc(Cl)cc(Cl)c4)n[nH]c3n2)CC1 [Example 12, 1-(3-(3,5-dichloro-phenyl)-1H-pyrazolo[3,4-b]-pyrazin-6-yl)-4-methylpiperidin-4-amine]
IC50 [1, 3]: 0.623 µM | IC50 [2, 4]: 0.404 µM

CC1(CN)CCN(c2cnc3c(-c4cccnc4Cl)n[nH]c3n2)CC1 [Example 36, (1-(3-(2-chloro-pyridin-3-yl)-1H-pyrazolo[3,4-b]-pyrazin-6-yl)-4-methylpiperidin-4-yl) methanamine]
IC50 [1, 3]: 0.32 µM | IC50 [2, 4]: 0.967 µM

N[C@@H]1COCC12CCN(c1cnc3c(-c4ccccc4Cl)n[nH]c3n1)CC2 [Example 39, (S)-8-(3-(2-chloro-phenyl)-1H-pyrazolo[3,4-b]-pyrazin-6-yl)-2-oxa-8-azaspiro[4.5]-decan-4-amine]
IC50 [1, 3]: 0.103 µM | IC50 [2, 4]: 0.158 µM
